Target: T1, Met30 (Saccharomyces cerevisiae, UniProt P39014)
T1 sequence (P39014 1-640): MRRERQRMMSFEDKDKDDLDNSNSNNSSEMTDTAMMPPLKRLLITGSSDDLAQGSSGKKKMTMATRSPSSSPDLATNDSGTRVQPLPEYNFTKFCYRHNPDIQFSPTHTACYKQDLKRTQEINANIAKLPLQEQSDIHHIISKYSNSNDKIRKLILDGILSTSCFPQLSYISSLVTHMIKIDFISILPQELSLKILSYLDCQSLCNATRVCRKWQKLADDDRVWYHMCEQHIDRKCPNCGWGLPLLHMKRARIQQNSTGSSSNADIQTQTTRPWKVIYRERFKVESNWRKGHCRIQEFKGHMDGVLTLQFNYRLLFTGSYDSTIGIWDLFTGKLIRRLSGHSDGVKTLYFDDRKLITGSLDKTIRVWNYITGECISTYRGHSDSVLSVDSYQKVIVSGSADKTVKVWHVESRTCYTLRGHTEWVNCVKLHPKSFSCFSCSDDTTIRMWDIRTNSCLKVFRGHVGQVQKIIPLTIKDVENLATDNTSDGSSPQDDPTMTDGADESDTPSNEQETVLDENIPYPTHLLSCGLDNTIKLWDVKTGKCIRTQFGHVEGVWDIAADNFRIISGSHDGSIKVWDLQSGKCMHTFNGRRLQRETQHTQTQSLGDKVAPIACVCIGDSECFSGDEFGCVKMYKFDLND
Assay: DARTS, thermolysin or subtilisin protection, immunoblot
Type: biochemical
Conditions: yeast lysate (Skp1 present); also in vitro translated Met30

With `O=C1c2ccccc2-c2nc3nonc3nc21` [SMER3] the “DARTS, thermolysin or subtilisin protection, immunoblot” value was “we observed SMER3-dependent protection of Met30”.

— PMC2902569 (Nature biotechnology, 2010)
